{
  "source": "paper PMC9374744",
  "about": "“Structural basis for receptor selectivity and inverse agonism in S1P5 receptors” (Nature Communications, 2022)",
  "conditions_in_all_cases": "inverse agonism",
  "key": {"human S1P5 G293A mutant": {"molecular_target": "human S1P5 G293A mutant (Homo sapiens, UniProt Q9H228, G293A)", "sequence (Q9H228 whole entry G293A)": "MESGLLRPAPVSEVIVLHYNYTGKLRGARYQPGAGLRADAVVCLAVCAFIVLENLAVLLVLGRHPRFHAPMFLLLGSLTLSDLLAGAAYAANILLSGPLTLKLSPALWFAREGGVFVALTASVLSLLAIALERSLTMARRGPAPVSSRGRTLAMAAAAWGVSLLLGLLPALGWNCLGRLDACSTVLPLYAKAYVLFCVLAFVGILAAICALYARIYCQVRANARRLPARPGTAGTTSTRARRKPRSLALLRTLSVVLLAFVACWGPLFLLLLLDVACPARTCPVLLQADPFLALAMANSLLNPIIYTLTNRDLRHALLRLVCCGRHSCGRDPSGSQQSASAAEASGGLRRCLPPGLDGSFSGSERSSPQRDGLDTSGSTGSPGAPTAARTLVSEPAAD", "assay": "BRET-based cAMP Gi signaling assay, S1P5 G293A"}, "human S1P5 R111A mutant": {"molecular_target": "human S1P5 R111A mutant (Homo sapiens, UniProt Q9H228, R111A)", "sequence (Q9H228 whole entry R111A)": "as the sequence (Q9H228 whole entry G293A) above, with R111A, A293G counted along it", "assay": "BRET-based cAMP Gi signaling assay, S1P5 R111A"}, "human S1P5 L318Q mutant": {"molecular_target": "human S1P5 L318Q mutant (Homo sapiens, UniProt Q9H228, L318Q)", "sequence (Q9H228 whole entry L318Q)": "as the sequence (Q9H228 whole entry G293A) above, with A293G, L318Q counted along it", "assay": "BRET-based cAMP Gi signaling assay, S1P5 L318Q"}, "human S1P5 L292V mutant": {"molecular_target": "human S1P5 L292V mutant (Homo sapiens, UniProt Q9H228, L292V)", "sequence (Q9H228 whole entry L292V)": "as the sequence (Q9H228 whole entry G293A) above, with L292V, A293G counted along it", "assay": "BRET-based cAMP Gi signaling assay, S1P5 L292V"}, "human S1P5 Y89W mutant": {"molecular_target": "human S1P5 Y89W mutant (Homo sapiens, UniProt Q9H228, Y89W)", "sequence (Q9H228 whole entry Y89W)": "as the sequence (Q9H228 whole entry G293A) above, with Y89W, A293G counted along it", "assay": "BRET-based cAMP Gi signaling assay, S1P5 Y89W"}, "human S1P5 K24Q mutant": {"molecular_target": "human S1P5 K24Q mutant (Homo sapiens, UniProt Q9H228, K24Q)", "sequence (Q9H228 whole entry K24Q)": "as the sequence (Q9H228 whole entry G293A) above, with K24Q, A293G counted along it", "assay": "BRET-based cAMP Gi signaling assay, S1P5 K24Q"}, "[1]": {"conditions": "Figure 2c source data, N/R = no response"}},
  "note": "“And” between values parts separate entries of the source, which are not always exact repeats. Equal values may be shown once.",
  "data": [
    {"smiles": "O=C(O)CCCN1CCc2cccc(OCCc3cccc4ccccc34)c2CC1", "note": "[ONO-5430608, 4-{6-[2-(1-naphthyl)ethoxy]-1,2,4,5-tetrahydro-3H-3-benzazepin-3-yl} butanoic acid]", "values": [
      {"measurement": "EC50", "setting": "human S1P5 G293A mutant; ONO, pEC50, M, G293A, mean ± SD, n=3", "value": 4.57, "unit": "nM"},
      {"measurement": "EC50", "setting": "human S1P5 G293A mutant; ONO-5430608 pEC50, single experiments #1-#3, G293A, Figure 2c source data", "value": "5.11 nM and 4.57 nM and 4.12 nM"},
      {"measurement": "ONO-5430608 pEC50, single experiments #1-#3", "setting": "human S1P5 R111A mutant; [1]", "value": "N/R"},
      {"measurement": "ONO, pEC50, M", "setting": "human S1P5 R111A mutant; n=3, N/R = no response", "value": "N/R"},
      {"measurement": "EC50", "setting": "human S1P5 L318Q mutant; ONO, pEC50, M, L318Q, mean ± SD, n=3", "value": 22.4, "unit": "nM"},
      {"measurement": "EC50", "setting": "human S1P5 L318Q mutant; ONO-5430608 pEC50, single experiments #1-#3, L318Q, Figure 2c source data", "value": "23 nM and 24.6 nM and 20.4 nM"},
      {"measurement": "EC50", "setting": "human S1P5 L292V mutant; ONO, pEC50, M, L292V, mean ± SD, n=3", "value": 23.4, "unit": "nM"},
      {"measurement": "EC50", "setting": "human S1P5 L292V mutant; ONO-5430608 pEC50, single experiments #1-#3, L292V, Figure 2c source data", "value": "23 nM and 25.6 nM and 22.5 nM"},
      {"measurement": "EC50", "setting": "human S1P5 Y89W mutant; ONO, pEC50, M, Y89W, mean ± SD, n=3", "value": 2.95, "unit": "nM"},
      {"measurement": "EC50", "setting": "human S1P5 Y89W mutant; ONO-5430608 pEC50, single experiments #1-#3, Y89W, Figure 2c source data", "value": "3.01 nM and 1.99 nM and 4.31 nM"},
      {"measurement": "ONO-5430608 pEC50, single experiments #1-#3", "setting": "human S1P5 K24Q mutant; [1]", "value": "N/R"},
      {"measurement": "ONO, pEC50, M", "setting": "human S1P5 K24Q mutant; n=3, N/R = no response", "value": "N/R"}
    ]}
  ]
}
